Reference: patent US10239835B2, “N-alkylaryl-5-oxyaryl-octahydro-cyclopenta[c]pyrrole negative allosteric modulators of NR2B” (Luc Therapeutics, Inc., priority 2014, dated 2019)

Experiments:
[1] = target: HEK293 cells expressing NR1/NR2B (Homo sapiens (Human), UniProt Q05586+Q13224); test: NR2B NAM Assay (FDSS Ca2+ influx cell assay); assay type: cell-based; conditions: NR2B NAM assay, class of inhibitory concentration; read-out: Activity Category
Method: (§1) Cell Culture and plating: HEK293 cells expressing NR1/NR2B (Chantest, Cleveland, Ohio) were grown to 70-80% confluency as an adherent monolayer in standard tissue culture flasks at 37° C., 5% CO2 per supplier's instructions. NR2B expression was induced by incubation with 0.3-0.4 μg/ml tetracycline in the presence of 4 mM ARL-15896 for 18-24 hours under the same growth conditions, then transferred to 30° C. for another 3-5 hours.
(§2) After induction, cell culture medium was removed and cells were rinsed once with Ca^2+ and Mg^2+-free Dulbecco's phosphate buffered saline. Cells were then removed from the flask using TrypLE™ Express (Life Technologies) according to the manufacturer's instructions and collected to 50 ml centrifuge tubes. Following two washes in Ca^2+/Mg^2+-free HBSS with 20 mM HEPES (HHnoCa), cells were counted and viability assessed using trypan blue. To load cells with Ca^2+-sensitive dye, they were resuspended in fluo-8 plus Component B (AAT Bioquest Products) diluted in HHnoCa and incubated 15 minutes at 37° C., followed by 30 minutes at room temp (in dark). Cells were then washed and resuspended in HHnoCa to remove extracellular dye and plated in 384-well plates (Falcon, uncoated) at 20,000-30,000 cells/well in a final volume of 25 μl/well.
(§3) FDSS Assay: To each well of the plate, 10 μL test compound, control (MK801) or HHnoCa buffer was added at different concentrations to yield final concentrations of 0.001, 0.003, 0.010, 0.030, 0.100, 0.300, 1.000, 3.000, 10.000, or 30.000 uM final concentration of DMSO of 0.1%. Following 10 minutes pre-incubation in the dark, plates are loaded onto the Hamamatsu FDSS 6000. After collecting baseline fluorescence images, 3 μM glutamate, 3 μM glycine, and 1 mM Ca^2+ in HHnoCa buffer is added to each well, and Ca^2+ is recorded for 3 minutes. Data were processed by computing ratio of fluorescence at the end of data collection to baseline fluorescence to assess degree of Ca^2+ influx inhibition relative to that observed in MK801.
(§4) Table 8 below provides activity of each compound according to the legend that “++++” indicates inhibition at a concentration<100 nM; “+++” indicates inhibition at a concentration between 100 nM and 1 μM of the disclosed compound; “++” indicates inhibition at a concentration of from 1 μM to 10 μM; and “+” indicates inhibition at a concentration>10 μM.

[2] = target: HEK293 cells expressing NR1/NR2B (Homo sapiens (Human), UniProt Q13224); test: NR2B NAM Assay (FDSS Ca2+ influx cell assay); assay type: cell-based; conditions: Ca2+ influx inhibition relative to MK801; 3 μM glutamate, 3 μM glycine, 1 mM Ca2+; read-out: NR2B NAM IC50
Chain of HEK293 cells expressing NR1/NR2B (Homo sapiens (Human), UniProt Q13224) (Q13224 27-1484, other chains not shown): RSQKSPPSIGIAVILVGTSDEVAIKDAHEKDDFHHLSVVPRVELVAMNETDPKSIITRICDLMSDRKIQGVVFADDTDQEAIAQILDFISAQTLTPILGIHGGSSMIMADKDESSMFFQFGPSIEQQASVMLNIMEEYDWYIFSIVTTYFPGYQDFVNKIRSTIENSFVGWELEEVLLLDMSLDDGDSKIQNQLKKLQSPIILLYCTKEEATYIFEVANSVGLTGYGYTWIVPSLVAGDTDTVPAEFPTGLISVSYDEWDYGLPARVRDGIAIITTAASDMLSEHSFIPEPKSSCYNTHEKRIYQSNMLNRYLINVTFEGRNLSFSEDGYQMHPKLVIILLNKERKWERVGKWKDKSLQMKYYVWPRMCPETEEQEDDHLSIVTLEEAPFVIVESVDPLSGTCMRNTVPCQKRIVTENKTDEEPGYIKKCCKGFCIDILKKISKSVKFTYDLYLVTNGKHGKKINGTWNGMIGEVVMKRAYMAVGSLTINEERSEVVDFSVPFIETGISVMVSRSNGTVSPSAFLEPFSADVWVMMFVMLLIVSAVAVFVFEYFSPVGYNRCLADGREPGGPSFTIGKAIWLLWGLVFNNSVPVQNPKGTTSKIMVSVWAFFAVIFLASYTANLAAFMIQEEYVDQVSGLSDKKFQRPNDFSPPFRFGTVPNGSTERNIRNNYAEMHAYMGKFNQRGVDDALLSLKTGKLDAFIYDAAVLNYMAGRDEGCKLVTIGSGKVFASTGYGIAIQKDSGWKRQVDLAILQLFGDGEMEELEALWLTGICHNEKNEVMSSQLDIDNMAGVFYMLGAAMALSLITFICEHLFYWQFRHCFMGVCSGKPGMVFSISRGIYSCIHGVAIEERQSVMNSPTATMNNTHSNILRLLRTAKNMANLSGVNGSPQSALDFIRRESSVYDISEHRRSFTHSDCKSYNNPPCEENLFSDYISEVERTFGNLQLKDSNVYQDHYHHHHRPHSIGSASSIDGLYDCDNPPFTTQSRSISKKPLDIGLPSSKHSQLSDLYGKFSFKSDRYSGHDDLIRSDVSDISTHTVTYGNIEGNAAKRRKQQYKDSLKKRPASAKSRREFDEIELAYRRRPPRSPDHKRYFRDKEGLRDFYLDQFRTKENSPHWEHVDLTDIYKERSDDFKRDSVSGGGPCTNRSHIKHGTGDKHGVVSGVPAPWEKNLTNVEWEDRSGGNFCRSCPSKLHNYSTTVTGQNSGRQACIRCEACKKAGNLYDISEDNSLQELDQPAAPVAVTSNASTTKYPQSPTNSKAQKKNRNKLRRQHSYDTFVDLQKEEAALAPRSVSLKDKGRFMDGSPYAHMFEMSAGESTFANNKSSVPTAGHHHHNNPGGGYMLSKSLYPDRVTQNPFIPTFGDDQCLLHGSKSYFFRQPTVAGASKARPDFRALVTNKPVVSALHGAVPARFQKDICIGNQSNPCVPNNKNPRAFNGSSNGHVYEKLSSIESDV
Method: as §1, §2, §3, §4

Chain of HEK293 cells expressing NR1/NR2B (Homo sapiens (Human), UniProt Q05586+Q13224) (Q13224 27-1484, other chains not shown): as above

Structure (SMILES) | IC50 [1] [µM] | IC50 [2] [µM]
O=C(CN1C[C@H]2C[C@H](Oc3ccc(F)cc3)C[C@H]2C1)c1ccc(O)cc1 | < 0.1 | 0.047
Oc1ccc(C(O)CN2C[C@H]3C[C@H](Oc4ccc(F)cc4)C[C@H]3C2)cc1 (stereo partly drawn) | < 0.1 | 0.013
Oc1ccc(C(O)CN2C[C@H]3C[C@H](Oc4cccnc4)C[C@H]3C2)cc1 (stereo partly drawn) | < 0.1 | 0.0946
O=C(CN1C[C@H]2C[C@H](Oc3ccc(F)cc3)C[C@H]2C1)c1ccc(O)c(F)n1 | > 10 | 10
Cc1ccc(O[C@H]2C[C@@H]3CN(CC(=O)c4ccc(O)cc4)C[C@@H]3C2)cn1 | < 0.1 | 0.0845
N#Cc1ccc(O[C@H]2C[C@@H]3CN(CC(=O)c4ccc(O)cn4)C[C@@H]3C2)cc1 | > 10 | 10
N#Cc1ccc(O[C@H]2C[C@@H]3CN(CC(O)c4ccc(O)cn4)C[C@@H]3C2)cc1 (stereo partly drawn) | < 0.1 | 0.018
N#Cc1ccc(O[C@H]2C[C@@H]3CN(CC(O)c4ccc(O)c(F)n4)C[C@@H]3C2)cc1 (stereo partly drawn) | 0.1 to 1 | 0.367
O=C(CN1C[C@H]2C[C@H](Oc3cccnc3)C[C@H]2C1)c1ccc(O)c(F)c1 | 0.1 to 1 | 0.434
COc1ccc(O[C@H]2C[C@@H]3CN(CC(=O)c4ccc(O)cn4)C[C@@H]3C2)cc1 | > 10 | 10
COc1ccc(O[C@H]2C[C@@H]3CN(CC(=O)c4ccc(O)cc4)C[C@@H]3C2)cc1 | < 0.1 | 0.0464
COc1ccc(O[C@H]2C[C@@H]3CN(CC(=O)c4ccc(O)c(F)c4)C[C@@H]3C2)cc1 | 0.1 to 1 | 0.102
N#Cc1ccc(O[C@H]2C[C@@H]3CN(CC(=O)c4ccc(O)c(F)n4)C[C@@H]3C2)cc1 | > 10 | 10
N#Cc1ccc(O[C@H]2C[C@@H]3CN(CC(=O)c4ccc(O)cc4)C[C@@H]3C2)cc1 | < 0.1 | 0.0682
N#Cc1ccc(O[C@H]2C[C@@H]3CN(CC(O)c4ccc(O)cc4)C[C@@H]3C2)cc1 (stereo partly drawn) | < 0.1 | 0.0474
Oc1ccc(C(O)CN2C[C@H]3C[C@H](Oc4cncc(F)c4)C[C@H]3C2)cc1 (stereo partly drawn) | 0.1 to 1 | 0.267
Oc1ccc(C(O)CN2C[C@H]3C[C@H](Oc4cccnc4)C[C@H]3C2)cc1F (stereo partly drawn) | < 0.1 | 0.0521

Structure (SMILES) | IC50 [1] [µM] | IC50 [2] [µM]
COc1cccc(O[C@H]2C[C@@H]3CN(CC(=O)c4ccc(O)cn4)C[C@@H]3C2)c1 | > 10 | 10
Cc1ccc(O[C@H]2C[C@@H]3CN(CC(O)c4ccc(O)cc4)C[C@@H]3C2)cn1 (stereo partly drawn) | 0.1 to 1 | 0.14
COc1ccc(O[C@H]2C[C@@H]3CN(CC(=O)c4ccc(O)c(OC)n4)C[C@@H]3C2)cc1 | > 10 | 10
COc1ccc(O[C@H]2C[C@@H]3CN(CC(O)c4ccc(O)c(OC)n4)C[C@@H]3C2)cc1 (stereo partly drawn) | 1 to 10 | 1.33
COc1ccc(O[C@H]2C[C@@H]3CN(CC(O)c4ccc(O)cn4)C[C@@H]3C2)cc1 (stereo partly drawn) | < 0.1 | 0.0658
COc1ccc(O[C@H]2C[C@@H]3CN(CC(O)c4ccc(O)c(F)c4)C[C@@H]3C2)cc1 (stereo partly drawn) | < 0.1 | 0.0415
COc1ccc(O[C@H]2C[C@@H]3CN(CC(O)c4ccc(O)cc4)C[C@@H]3C2)cc1 (stereo partly drawn) | < 0.1 | 0.0516
COc1cccc(O[C@H]2C[C@@H]3CN(CC(O)c4ccc(O)cn4)C[C@@H]3C2)c1 (stereo partly drawn) | < 0.1 | 0.0707
Oc1ccc(C(O)CN2C[C@H]3C[C@H](Oc4ccc(F)cc4)C[C@H]3C2)nc1F (stereo partly drawn) | < 0.1 | 0.0302
O=C(CN1C[C@H]2C[C@@H](Oc3cc(F)cc(F)c3)C[C@H]2C1)c1ccc(O)cn1 | > 10 | 10
Oc1ccc(C(O)CN2C[C@H]3C[C@@H](Oc4cc(F)cc(F)c4)C[C@H]3C2)nc1 (stereo partly drawn) | 1 to 10 | 2.92
COc1ccc(O[C@@H]2C[C@@H]3CN(CC(=O)c4ccc(O)cc4)C[C@@H]3C2)cc1 | < 0.1 | 0.0573
COc1ccc(O[C@@H]2C[C@@H]3CN(CC(=O)c4ccc(O)c(F)c4)C[C@@H]3C2)cc1 | 0.1 to 1 | 0.25
COc1ccc(O[C@@H]2C[C@@H]3CN(CC(O)c4ccc(O)c(F)c4)C[C@@H]3C2)cc1 (stereo partly drawn) | < 0.1 | 0.0839
O=C(CN1C[C@H]2C[C@@H](Oc3ccc(F)cc3)C[C@H]2C1)c1ccc(O)c(F)c1 | < 0.1 | 0.0532
OC(CN1C[C@H]2C[C@H](Oc3ccc(F)cc3)C[C@H]2C1)c1cn[nH]c1 (stereo partly drawn) [drawing 256] | 1 to 10 | 4.89
